Consider 6 compounds from ChEMBL document CHEMBL3102744, “Inhibition of tyrosinase activity by polyphenol compounds from Flemingia philippinensis roots” (Bioorg Med Chem, 2014).

Molecules are shown by their SMILES. The source made the active and inactive calls. The calls are words filed in the database; no cut-off is given here.

Assay [1] has as its target T1, Tyrosinase (Agaricus bisporus) (UniProt O42713).
T1 sequence (whole entry): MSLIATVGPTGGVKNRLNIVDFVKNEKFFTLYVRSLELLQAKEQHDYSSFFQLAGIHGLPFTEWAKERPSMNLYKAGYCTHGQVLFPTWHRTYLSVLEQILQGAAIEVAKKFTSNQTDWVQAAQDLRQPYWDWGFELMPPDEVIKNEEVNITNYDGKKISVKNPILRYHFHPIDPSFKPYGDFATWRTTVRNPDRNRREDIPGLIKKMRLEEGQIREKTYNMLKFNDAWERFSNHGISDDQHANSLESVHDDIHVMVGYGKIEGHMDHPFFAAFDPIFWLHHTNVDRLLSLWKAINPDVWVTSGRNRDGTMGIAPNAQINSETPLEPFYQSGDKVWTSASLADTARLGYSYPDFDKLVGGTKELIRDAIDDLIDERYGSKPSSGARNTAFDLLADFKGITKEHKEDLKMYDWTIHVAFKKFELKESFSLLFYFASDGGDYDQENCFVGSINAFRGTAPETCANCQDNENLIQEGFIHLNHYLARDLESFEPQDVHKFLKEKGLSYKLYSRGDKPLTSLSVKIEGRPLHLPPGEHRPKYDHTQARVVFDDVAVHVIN
The experiment in a line: Ratio of kojic acid IC50 to compound IC50 for mushroom tyrosinase using L-tyrosine as substrate.

Assay [2] deals with T2, Tyrosinase (Agaricus bisporus, UniProt O42713).
T2 sequence (O42713 whole entry): T1 sequence (whole entry)
As to the kind of experiment: Competitive inhibition of mushroom tyrosinase using L-DOPA as substrate preincubated for 10 mins with substrate followed by enzyme addition measured after 15 mins by Dixon plot analysis.

Assay [3] addresses T2, Tyrosinase. As to the kind of experiment: Inhibition of mushroom tyrosinase using L-DOPA as substrate preincubated for 10 mins with substrate followed by enzyme addition measured after 15 mins by spectrophotometry.
Assay [4] concerns the target T2, Tyrosinase. The experiment in a line: Competitive inhibition of mushroom tyrosinase using L-tyrosine as substrate preincubated for 10 mins with substrate followed by enzyme addition measured after 15 mins by Dixon plot analysis.
For assay [5], the target named is T1, Tyrosinase (Agaricus bisporus). As to the kind of experiment: (§1) Inhibition of mushroom tyrosinase using L-tyrosine as substrate preincubated for 10 mins with substrate followed by enzyme addition measured after 15 mins by spectrophotometry.
The target in assay [6] is T2, Tyrosinase. Described as §1.
For assay [7], the target named is T1, Tyrosinase (Agaricus bisporus). The experiment in a line: Reversible inhibition of mushroom tyrosinase at 0.781 to 3.125 uM.
Assay [8] shares this target. The experiment in a line: Inhibition of mushroom tyrosinase using L-tyrosine as substrate at 0.78 uM by spectrophotometry. Conditions: TDE = time-dependent effect.

Consider `COc1ccc(CCC(=O)c2c(O)c3c(c4c2OC(C(C)(C)O)C4)OC(C)(C)C=C3)cc1` (centres undefined), for which, in assay [1], the Ratio IC50 turned out to be 10. The Ki (commonly the dissociation constant of the complex between target and ligand, obtained from inhibition or displacement) in assay [2] was 2.74 µM; in assay [4], 0.63 µM. The IC50 (as a rule, the concentration needed to halve the response being measured) in assay [3] turned out to be 5.22 µM; in assay [6] it was 1.28 µM. For the same compound, in assay [5], the inhibition entry was “Dose-dependent effect”.

For `COc1ccc(CCC(=O)c2ccc3c(c2O)CC(O)C(C)(C)O3)cc1` (centres undefined), the Ki in assay [2] turned out to be 13.3 µM; in assay [4] it was 9.36 µM. The IC50 in assay [3] was determined as 32.6 µM; in assay [6], 18.4 µM. Also, the inhibition result in assay [5] is “Dose-dependent effect”.

On to `COc1ccc([C@@H]2CC(=O)c3c(O)c4c(c(CC=C(C)C)c3O2)OC(C)(C)C=C4)c(O)c1` [KHONKLONGINOL H], for which the Ki in assay [2] was found to be 8.15 µM; in assay [4], 2.07 µM. Moreover, the IC50 came to 20.4 µM in assay [3] and 4.96 µM in assay [6]. In addition, in assay [5], the inhibition result was “Dose-dependent effect”.

`CC(C)=CCc1c2c(c(O)c3c1O[C@H](c1ccc(O)cc1O)CC3=O)C=CC(C)(C)O2` [FLEMICHIN D]: the Ki in assay [2] amounted to 3.77 µM; in assay [4], 0.86 µM. Moreover, the IC50 worked out at 7.48 µM in assay [3] and 1.79 µM in assay [6]. The inhibition result in assay [5] is “Dose-dependent effect”.

Regarding `COc1ccc(CCC(=O)c2c(O)c(CC=C(C)C)c3c(c2O)CC(O)C(C)(C)O3)cc1` (centres undefined), the inhibition entry in assay [7] was “Active”. Moreover, the Ratio IC50 in assay [1] was 10. For the same compound, the inhibition result in assay [8] is “tde”; in assay [5], “Dose-dependent effect”. Also, the values for the Ki in assay [2] and in assay [4] were 8.16 µM and 0.48 µM, respectively. Besides, the IC50 in assay [3] was found to be 19.5 µM; in assay [6] it was 1.01 µM.

With `CC(C)=CCc1c2c(c(O)c3c1O[C@H](c1ccc(O)cc1)CC3=O)C=CC(C)(C)O2` [LUPINIFOLIN], the Ki in assay [2] is 36.3 µM; in assay [4], 5.33 µM. Further, the IC50 stood at 84.1 µM in assay [3] and 11.2 µM in assay [6]. Moreover, the inhibition result in assay [5] was “Dose-dependent effect”.
